The values that follow come from paper PMC6005341, “Identification of “sarsasapogenin-aglyconed” timosaponins as novel Aβ-lowering modulators of amyloid precursor protein processing” (Chemical Science, 2016).

Test [1] has as its system Aβ42 production in N2A-APPswe cells. Description: Aβ42 in conditioned medium of N2A-APPswe cells by ELISA, 18 h treatment. The settings on record: for IC50: mean ± standard deviation, n ≥ 3. In kind it is cell-based. An excerpt: Sigma-Aldrich Chemical Co. unless otherwise specified. SSG (1) was purchased from Wako Pure Chemical Industries, Ltd. Diosgenin (6), Dioscin (9), Polyphyllin D (10), Timosaponin BI (22) and Timosaponin BII (23) were purchased from Chengdu Must Bio-Technology Co.
Ltd. Yamogenin (7) was bought from Ambinter c/o Greenpharma while Smilagenin (24) was bought from Steraloids Inc. Substances dissolved in DMSO as stock solutions. Cell culture medium constituents were purchased from Life Technologies, Inc.
Cell culture: Neuro-2A cells expressing Swedish mutants of APP (N2A-APPswe provided by Prof. Yifan Han, The Hong Kong Polytechnic University)1 was cultured in minimal essential medium with 2 mM glutamine, 2 mM pyruvate and 10% fetal bovine serum. […]
(§1) Aβ ELISA: Aβ concentrations in conditioned medium were assayed using ELISA kits for […]

The subject of test [2] is Aβ40 and Aβ38 in N2A-APPswe cells. The test can be described thus: Aβ40 and Aβ38 in conditioned medium of N2A-APPswe cells by ELISA. Type of test: cell-based. To be noted: compared with Aβ42. Here is the method:
as §1
In general terms: In an ELISA, binding on a coated surface is turned into a signal by an enzyme label.

In the next test the test system is Neuro-2A cells. The test can be described thus: Neurite outgrowth, type III β-tubulin immunostaining. In kind it is cell-based. To be noted: at concentrations that lower Aβ production, 18 h. As for the experimental part:
Immunofluorescence examination of neurite outgrowth: Neuro-2A cells were seeded at 1×105 per glass bottom dishes. After treatment, cells were fixed with 4% paraformaldyde for 10 min, permeabilized with 0.1% Triton X-100, and then blocked with 1% BSA in PBS.
The cells were incubated with monoclonal antibody raised against type III β-tubulin (Sigma) for 1 h followed by Alexa488 conjugated secondary antibody. Neurite morphology was examined under fluorescence microscope. […]

For test [3], the system named is brain Aβ / amyloid in APPswe transgene. The settings on record: oral 25 mg/kg for 18 h, ref FASEB J. (2006) 20: E599; cited from earlier work.
Where [4] appears, read: N2a-APPswe, read-out: IC50 in lowering Aβ42 production, N2A-APPswe cells.
[5] abbreviates: N2A-APPswe cells, read-out: IC50 in lowering Aβ42 production.

Like-named read-outs stand apart in the source and are kept apart here. Bounds are passed on as bounds.

On to `C[C@@H]1CC[C@@]2(OC1)O[C@H]1C[C@H]3[C@@H]4C[C@H](O)[C@H]5C[C@@H](O)CC[C@]5(C)[C@H]4CC[C@]3(C)[C@H]1[C@@H]2C` [5α-H, 6α-OH diosgenin (15), 5α-H, 6α-OH diosgenin], for which the IC50 – broadly, the point on the concentration scale where inhibition reaches its midpoint – in test [1] (setting [4]) was > 100 µM. Regarding `C[C@H]1CC[C@@]2(OC1)O[C@H]1C[C@H]3[C@@H]4C[C@H](O)[C@H]5C[C@@H](O)CC[C@]5(C)[C@H]4CC[C@]3(C)[C@H]1[C@@H]2C` [5α-H, 6α-OH yamogenin (17), 5α-H, 6α-OH yamogenin], the IC50 in test [1] (setting [4]) was > 100 µM. With `C[C@@H]1CC[C@@]2(OC1)O[C@H]1C[C@H]3[C@@H]4C[C@@H](O)[C@@H]5C[C@@H](O)CC[C@]5(C)[C@H]4CC[C@]3(C)[C@H]1[C@@H]2C` [5β-H, 6β-OH diosgenin (16), 5β-H, 6β-OH diosgenin], the “Aβ42-lowering effect (in words)” value in test [1] (N2A-APPswe cells) is listed as “ineffective”. Also, the IC50 in test [1] (setting [4]) was > 100 µM. On to `C[C@H]1CC[C@@]2(OC1)O[C@H]1C[C@H]3[C@@H]4C[C@@H](O)[C@@H]5C[C@@H](O)CC[C@]5(C)[C@H]4CC[C@]3(C)[C@H]1[C@@H]2C` [5β-H, 6β-OH yamogenin (18), 5β-H, 6β-OH yamogenin], for which the IC50 in test [1] (setting [4]) worked out at 45 ± 4 µM.

`C[C@H]1CC[C@@]2(OC1)O[C@H]1C[C@H]3[C@@H]4CC[C@@H]5C[C@@H](O[C@@H]6O[C@H](CO)[C@@H](O)[C@H](O)[C@H]6O)CC[C@]5(C)[C@H]4CC[C@]3(C)[C@H]1[C@@H]2C` [AA (5), Asparagoside A]: the “Aβ42-lowering effect (in words)” value in test [1] (N2A-APPswe cells) is on record as “effectively lowered”. Moreover, the IC50 in test [1] (setting [4]) was ~6 µM. Moreover, the “effect on Aβ40 and Aβ38” value in test [2] is recorded as “much smaller effect”. Consider `C[C@@H]1CC[C@@]2(OC1)O[C@H]1C[C@H]3[C@@H]4CC=C5C[C@@H](O[C@@H]6O[C@H](CO)[C@H](O)[C@H](O)[C@H]6O)CC[C@]5(C)[C@H]4CC[C@]3(C)[C@H]1[C@@H]2C` [Capsicoside A3 (8), capsicoside A3], for which the IC50 in test [1] (setting [5]) was > 100 µM.

As for `C[C@@H]1CC[C@@]2(OC1)O[C@H]1C[C@H]3[C@@H]4CC=C5C[C@@H](O[C@@H]6O[C@H](CO)[C@@H](O[C@@H]7O[C@@H](C)[C@H](O)[C@@H](O)[C@H]7O)[C@H](O)[C@H]6O[C@@H]6O[C@@H](C)[C@H](O)[C@@H](O)[C@H]6O)CC[C@]5(C)[C@H]4CC[C@]3(C)[C@H]1[C@@H]2C` [Compound 9, dioscin], the “Aβ42-lowering effect (in words)” value in test [1] (N2A-APPswe cells) is given as “insignificant Aβ42-lowering effects”. Consider `C[C@@H]1CC[C@@]2(OC1)O[C@H]1C[C@H]3[C@@H]4CC[C@H]5C[C@@H](O[C@@H]6O[C@H](CO)[C@@H](O[C@@H]7O[C@@H](C)[C@H](O)[C@@H](O)[C@H]7O)[C@H](O)[C@H]6O[C@@H]6O[C@@H](C)[C@H](O)[C@@H](O)[C@H]6O)CC[C@]5(C)[C@H]4CC[C@]3(C)[C@H]1[C@@H]2C` [Compound 11, dihydrodioscin], for which the “Aβ42-lowering effect (in words)” value in test [1] (N2A-APPswe cells) was “insignificant Aβ42-lowering effects”. For `C[C@H](CO)CC[C@H]1O[C@H]2C[C@H]3[C@@H]4CC[C@@H]5C[C@@H](O)CC[C@]5(C)[C@H]4CC[C@]3(C)[C@H]2[C@@H]1C` [Dihydrosarsasapogenin (21), dihydrosarsasapogenin], in test [1] (setting [4]), the IC50 is > 100 µM. Regarding `C[C@@H]1CC[C@@]2(OC1)O[C@H]1C[C@H]3[C@@H]4CC=C5C[C@@H](O)CC[C@]5(C)[C@H]4CC[C@]3(C)[C@H]1[C@@H]2C` [Diosgenin (6), diosgenin], the “Aβ42-lowering effect (in words)” value in test [1] (N2A-APPswe cells) is “no effect”. In test [1] (setting [5]), the IC50 was > 100 µM. In the test on Neuro-2A cells, the neurite outgrowth entry is reported as “not shared”. In the case of `C[C@H]1CC[C@@]2(OC1)O[C@H]1C[C@H]3[C@@H]4CC[C@@H]5C[C@H](O)CC[C@]5(C)[C@H]4CC[C@]3(C)[C@H]1[C@@H]2C` [Episarsasapogenin (20), episarsasapogenin], in test [1] (N2A-APPswe cells), the “Aβ42-lowering effect (in words)” value is “inactive”. Also, the IC50 in test [1] (setting [4]) was > 100 µM. The neurite outgrowth result with Neuro-2A cells was “not shared”. On to `CC(C)[C@@H](C)/C=C/[C@@H](C)[C@H]1CC[C@H]2C3=CC=C4C[C@@H](O)CC[C@]4(C)[C@H]3CC[C@]12C` [Ergosterol, reference compound], for which the IC50 in test [1] (setting [5]) is > 100 µM. `CC1CCC2(OC1)OC1CC3C4CCC5CC(OCC(=O)O)CCC5(C)C4CCC3(C)C1C2C` (stereo not shown) [Ethereal SSG (29), ethereal SSG]: in test [1] (setting [4]), the IC50 is 27 ± 8 µM. Regarding `C[C@H]1CC[C@@]2(OC1)O[C@H]1C[C@H]3[C@@H]4CC[C@H]5C[C@@H](O)CC[C@]5(C)[C@H]4CC[C@]3(C)[C@H]1[C@@H]2C` [Neotigogenin (14), neotigogenin], in test [1] (N2A-APPswe cells), the “Aβ42-lowering effect (in words)” value was “ineffective”. In test [1] (setting [4]), the IC50 was > 100 µM. Moreover, the neurite outgrowth entry in the test on Neuro-2A cells is listed as “not shared”. With `CC(C)=CCC[C@](C)(O)[C@H]1CC[C@]2(C)[C@@H]1[C@H](O)C[C@@H]1[C@@]3(C)CC[C@H](O[C@@H]4O[C@H](CO)[C@@H](O)[C@H](O)[C@H]4O[C@@H]4O[C@H](CO)[C@@H](O)[C@H](O)[C@H]4O)C(C)(C)[C@@H]3CC[C@]12C` [Rg3], the “Brain Aβ1-42 reduced by” value in test [3] is 30%.

Regarding `C[C@H]1CC[C@@]2(OC1)O[C@H]1C[C@H]3[C@@H]4CC[C@@H]5CC(=O)CC[C@]5(C)[C@H]4CC[C@]3(C)[C@H]1[C@@H]2C` [Sarsasapogenone (19), sarsasapogenone], in test [1] (N2A-APPswe cells), the “Aβ42-lowering effect (in words)” value is listed as “comparable effect to 1”. Further, the IC50 in test [1] (setting [4]) came out at 50 ± 5 µM. In the case of `C[C@@H]1CC[C@@]2(OC1)O[C@H]1C[C@H]3[C@@H]4CC[C@@H]5C[C@@H](O)CC[C@]5(C)[C@H]4CC[C@]3(C)[C@H]1[C@@H]2C` [Smilagenin (24), smilagenin], the “Aβ42-lowering effect (in words)” value in test [1] (N2A-APPswe cells) is “ineffective”. The IC50 in test [1] (setting [4]) is > 100 µM. Also, the neurite outgrowth result in the test on Neuro-2A cells is “not shared”. Consider `C[C@H]1CC[C@@]2(OC1)O[C@H]1C[C@H]3[C@@H]4CC[C@@H]5C[C@@H](O[C@@H]6O[C@H](CO)[C@H](O[C@@H]7O[C@H](CO)[C@@H](O)[C@H](O)[C@H]7O)[C@H](O)[C@H]6O[C@@H]6O[C@H](CO)[C@@H](O)[C@H](O)[C@H]6O)CC[C@]5(C)[C@H]4CC[C@]3(C)[C@H]1[C@@H]2C` [TAV (4), timosaponin A V], for which, in test [1] (N2A-APPswe cells), the “Aβ42-lowering effect (in words)” value was “effectively lowered”. Besides, the IC50 in test [1] (setting [4]) was ~4.2 µM. Also, the “effect on Aβ40 and Aβ38” value in test [2] is on record as “much smaller effect”.

As for `C[C@@H]1CC[C@@]2(OC1)O[C@H]1C[C@H]3[C@@H]4CC[C@H]5C[C@@H](O)CC[C@]5(C)[C@H]4CC[C@]3(C)[C@H]1[C@@H]2C` [Tigogenin (13), tigogenin], the “Aβ42-lowering effect (in words)” value in test [1] (N2A-APPswe cells) is “ineffective”. The IC50 in test [1] (setting [4]) is > 100 µM. For the same compound, in the test with Neuro-2A cells, the neurite outgrowth entry is given as “not shared”. Take `CO[C@]1(CC[C@H](C)CO[C@@H]2O[C@H](CO)[C@@H](O)[C@H](O)[C@H]2O)O[C@H]2C[C@H]3[C@@H]4CC[C@@H]5C[C@@H](O[C@@H]6O[C@H](CO)[C@H](O)[C@H](O)[C@H]6O[C@@H]6O[C@H](CO)[C@@H](O)[C@H](O)[C@H]6O)CC[C@]5(C)[C@H]4CC[C@]3(C)[C@H]2[C@@H]1C` [Timosaponin B I (22), Timosaponin B I]: the “Aβ42-lowering effect (in words)” value in test [1] (N2A-APPswe cells) is “ineffective”. For the same compound, in test [1] (setting [4]), the IC50 is > 100 µM. With `C[C@H]1CC[C@@]2(OC1)O[C@H]1C[C@H]3[C@@H]4CC=C5C[C@@H](O)CC[C@]5(C)[C@H]4CC[C@]3(C)[C@H]1[C@@H]2C` [Yamogenin (7), yamogenin], the “Aβ42-lowering effect (in words)” value in test [1] (N2A-APPswe cells) is listed as “no effect”. For the same compound, the IC50 in test [1] (setting [5]) was > 100 µM. The neurite outgrowth entry with Neuro-2A cells is reported as “not shared”. For `COC1OC(CNC(=O)COC2CCC3(C)C(CCC4C3CCC3(C)C4CC4OC5(CCC(C)CO5)C(C)C43)C2)C(O)C(O)C1O` (stereo not drawn) [α-OMe SSG (32), α-OMe SSG], the IC50 in test [1] (setting [4]) was determined as 7.2 ± 2.2 µM. Still for that read-out and setting: for `COC1OC(Cn2cc(COC3CCC4(C)C(CCC5C4CCC4(C)C5CC5OC6(CCC(C)CO6)C(C)C54)C3)nn2)C(O)C(O)C1O` (stereo not drawn) [α-OMe triazole SSG (28), α-OMe triazole SSG] the value was 6.5 ± 2.1 µM. Consider `COC1OC(CNC(=O)COC2CCC3(C)C(CCC4C3CCC3(C)C4CC4OC5(CCC(C)CO5)C(C)C43)C2)C(O)C(O)C1O` (stereo not drawn) [β-OMe SSG (33), β-OMe SSG], for which the IC50 in test [1] (read-out: IC50 in lowering Aβ42 production, N2A-APPswe cells) was found to be 9.3 ± 3.5 µM.
